pEC50: −log10 of the molar value.
Molecular target: neurotensin receptor 1 (NTR1) (Homo sapiens (Human), UniProt P30989)
Assay: NTR1 dose response, high-content imaging beta-arrestin-GFP assay in NTR1-U2OS cells
Type: cell-based
Settings: read-out: EC50

neurotensin receptor 1 (NTR1), sequence (P30989 whole entry, species assumed): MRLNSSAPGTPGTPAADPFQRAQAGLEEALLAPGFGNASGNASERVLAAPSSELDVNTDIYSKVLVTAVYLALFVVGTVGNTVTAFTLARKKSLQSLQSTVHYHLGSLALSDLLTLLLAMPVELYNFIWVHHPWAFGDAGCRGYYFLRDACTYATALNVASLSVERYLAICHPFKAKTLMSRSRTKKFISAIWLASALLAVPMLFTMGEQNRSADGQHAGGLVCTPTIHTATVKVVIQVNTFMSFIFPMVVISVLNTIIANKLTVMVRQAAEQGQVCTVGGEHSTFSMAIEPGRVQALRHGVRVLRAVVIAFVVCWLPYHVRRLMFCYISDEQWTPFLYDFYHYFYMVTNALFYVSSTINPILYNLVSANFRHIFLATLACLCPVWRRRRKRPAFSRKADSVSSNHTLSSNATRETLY

Structure (SMILES) | pEC50
COc1ccccc1C1CCN(c2nc(OC3CCC3)nc3ccc(N(C)CCO)cc23)CC1 [Example 193, 2-((2-cyclobutoxy-4-(4-(2-methoxyphenyl)piperidin-1-yl)quinazolin-6-yl)(methyl)amino)ethanol] | 5.70 to 6.30
COc1ccccc1C1CCN(c2nc(C3CC3)nc3cnc(N(C)CCN4CCOCC4)cc23)CC1 [Example 194, 2-cyclopropyl-4-(4-(2-methoxyphenyl)piperidin-1-yl)-N-methyl-N-(2-morpholinoethyl)pyrido[3,4-d]pyrimidin-6-amine] | 5.70 to 6.30
COc1ccccc1C1CCN(c2nc(C3(F)CC3)nc3cnc(N(C)CCO)cc23)CC1 [Example 195, 2-({2-(1-Fluoro-cyclopropyl)-4-[4-(2-methoxy-phenyl)-piperidin-1-yl]-pyrido[3,4-d]pyrimidin-6-yl}-methyl-amino)-ethanol] | > 6.30
COc1ccccc1C1CCN(c2nc(C3(F)CC3)nc3cnc(N4CC[C@H](O)C4)cc23)CC1 [Example 196, 1-{2-(1-Fluoro-cyclopropyl)-4-[4-(2-methoxy-phenyl)-piperidin-1-yl]-pyrido[3,4-d]pyrimidin-6-yl}-pyrrolidin-3-ol] | 5.70 to 6.30
COc1ccccc1C1CCN(c2nc(C3(F)CC3)nc3cnc(N4CC[C@@H](O)C4)cc23)CC1 [Example 197, 1-{2-(1-Fluoro-cyclopropyl)-4-[4-(2-methoxy-phenyl)-piperidin-1-yl]-pyrido[3,4-d]pyrimidin-6-yl}-pyrrolidin-3-ol] | 5.70 to 6.30
COc1ccccc1C1CCN(c2nc(C3(F)CCC3)nc3cnc(N(C)CCO)cc23)CC1 [Example 198, 2-({2-(1-Fluoro-cyclobutyl)-4-[4-(2-methoxy-phenyl)-piperidin-1-yl]-pyrido[3,4-d]pyrimidin-6-yl}-methyl-amino)-ethanol] | 5.00 to 5.70
COc1ccccc1C1CCN(c2nc(C3(F)CCC3)nc3cnc(N4CC[C@@H](O)C4)cc23)CC1 [Example 199, 1-{2-(1-Fluoro-cyclobutyl)-4-[4-(2-methoxy-phenyl)-piperidin-1-yl]-pyrido[3,4-d]pyrimidin-6-yl}-pyrrolidin-3-ol] | 5.00 to 5.70
COc1ccccc1C1CCN(c2nc(C3(F)CCC3)nc3cnc(N4CC[C@H](O)C4)cc23)CC1 [Example 200, 1-{2-(1-Fluoro-cyclobutyl)-4-[4-(2-methoxy-phenyl)-piperidin-1-yl]-pyrido[3,4-d]pyrimidin-6-yl}-pyrrolidin-3-ol] | 5.00 to 5.70
COc1ccccc1C1CCN(c2nc(C3(F)CC3)nc3c(Cl)cc(N(C)CCO)cc23)CC1 [Example 201, 2-({8-Chloro-2-(1-fluoro-cyclopropyl)-4-[4-(2-methoxy-phenyl)-piperidin-1-yl]-quinazolin-6-yl}-methyl-amino)-ethanol] | > 6.30
COc1nccnc1C1CCN(c2nc(C3(C)CC3)nc3c(F)cc(N(C)CCO)cc23)CC1 [Example 204, 2-{[8-Fluoro-4-[4-(3-methoxy-pyrazin-2-yl)-piperidin-1-yl]-2-(1-methyl-cyclopropyl)-quinazolin-6-yl]-methyl-amino}-ethanol] | 5.70 to 6.30
COc1nccnc1C1CCN(c2nc(C3(C)CC3)nc3ccc(N(C)CCO)cc23)CC1 [Example 205, 2-{[4-[4-(3-Methoxy-pyrazin-2-yl)-piperidin-1-yl]-2-(1-methyl-cyclopropyl)-quinazolin-6-yl]-methyl-amino}-ethanol] | 5.70 to 6.30
COc1cccnc1C1CCN(c2nc(C3(F)CC3)nc3ccc(N(C)CCO)cc23)CC1 [Example 206, 2-{[2-(1-Fluoro-cyclopropyl)-4-(3-methoxy-3′,4′,5′,6′-tetrahydro-2′H-[2,4′]bipyridinyl-1′-yl)-quinazolin-6-yl]-methyl-amino}-ethanol] | 5.70 to 6.30
COc1ncccc1C1CCN(c2nc(C3(F)CC3)nc3ccc(N(C)CCO)cc23)CC1 [Example 207, 2-{[2-(1-Fluoro-cyclopropyl)-4-(2-methoxy-3′,4′,5′,6′-tetrahydro-2′H-[3,4′]bipyridinyl-1′-yl)-quinazolin-6-yl]-methyl-amino}-ethanol] | 5.70 to 6.30
COc1nccnc1C1CCN(c2nc(C3(F)CC3)nc3ccc(N(C)CCO)cc23)CC1 [Example 208, 2-({2-(1-Fluoro-cyclopropyl)-4-[4-(3-methoxy-pyrazin-2-yl)-piperidin-1-yl]-quinazolin-6-yl}-methyl-amino)-ethanol] | 5.70 to 6.30
COc1cccnc1N1CCN(c2nc(C3(F)CC3)nc3ccc(N(C)CCO)cc23)CC1 [Example 209, 2-({2-(1-Fluoro-cyclopropyl)-4-[4-(3-methoxy-pyridin-2-yl)-piperazin-1-yl]-quinazolin-6-yl}-methyl-amino)-ethanol] | 5.00 to 5.70
COc1ccncc1C1CCN(c2nc(C3(F)CC3)nc3ccc(N(C)CCO)cc23)CC1 [Example 210, 2-{[2-(1-Fluoro-cyclopropyl)-4-(4-methoxy-3′,4′,5′,6′-tetrahydro-2′H-[3,4′]bipyridinyl-1′-yl)-quinazolin-6-yl]-methyl-amino}-ethanol] | 5.00 to 5.70
COc1cncnc1C1CCN(c2nc(C3(F)CC3)nc3ccc(N(C)CCO)cc23)CC1 [Example 211, 2-({2-(1-Fluoro-cyclopropyl)-4-[4-(5-methoxy-pyrimidin-4-yl)-piperidin-1-yl]-quinazolin-6-yl}-methyl-amino)-ethanol] | < 5.00
COc1cnccc1C1CCN(c2nc(C3(F)CC3)nc3ccc(N(C)CCO)cc23)CC1 [Example 212, 2-{[2-(1-Fluoro-cyclopropyl)-4-(3′-methoxy-3,4,5,6-tetrahydro-2H-[4,4′]bipyridinyl-1-yl)-quinazolin-6-yl]-methyl-amino}-ethanol] | < 5.00
COc1nccnc1C1CCN(c2nc(C3(F)CC3)nc3c(F)cc(N(C)CCO)cc23)CC1 [Example 213, 2-({8-Fluoro-2-(1-fluoro-cyclopropyl)-4-[4-(3-methoxy-pyrazin-2-yl)-piperidin-1-yl]-quinazolin-6-yl}-methyl-amino)-ethanol] | 5.70 to 6.30
COc1ncccc1C1CCN(c2nc(C3(F)CC3)nc3c(F)cc(N(C)CCO)cc23)CC1 [Example 214, 2-{[8-Fluoro-2-(1-fluoro-cyclopropyl)-4-(2-methoxy-3′,4′,5′,6′-tetrahydro-2′H-[3,4′]bipyridinyl-1′-yl)-quinazolin-6-yl]-methyl-amino}-ethanol] | 5.70 to 6.30
COc1cccnc1N1CCN(c2nc(C3(F)CC3)nc3c(F)cc(N(C)CCO)cc23)CC1 [Example 215, 2-({8-Fluoro-2-(1-fluoro-cyclopropyl)-4-[4-(3-methoxy-pyridin-2-yl)-piperazin-1-yl]-quinazolin-6-yl}-methyl-amino)-ethanol] | 5.70 to 6.30
COc1cccnc1C1CCN(c2nc(C3(F)CC3)nc3c(F)cc(N(C)CCO)cc23)CC1 [Example 216, 2-{[8-Fluoro-2-(1-fluoro-cyclopropyl)-4-(3-methoxy-3′,4′,5′,6′-tetrahydro-2′H-[2,4′]bipyridinyl-1′-yl)-quinazolin-6-yl]-methyl-amino}-ethanol] | 5.00 to 5.70
COc1cncnc1C1CCN(c2nc(C3(F)CC3)nc3c(F)cc(N(C)CCO)cc23)CC1 [Example 217, 2-({8-Fluoro-2-(1-fluoro-cyclopropyl)-4-[4-(5-methoxy-pyrimidin-4-yl)-piperidin-1-yl]-quinazolin-6-yl}-methyl-amino)-ethanol] | < 5.00
COc1cc(I)ccc1C1CCN(c2nc(C3(F)CC3)nc3ccc(N(C)CCO)cc23)CC1 [Example 218] | < 5.00
COc1nccnc1C1CCN(c2nc(C3(CF)CC3)nc3ccc(N(C)CCO)cc23)CC1 [Example 219, 2-({2-(1-Fluoromethyl-cyclopropyl)-4-[4-(3-methoxy-pyrazin-2-yl)-piperidin-1-yl]-quinazolin-6-yl}-methyl-amino)-ethanol] | 5.70 to 6.30
COc1nccnc1C1CCN(c2nc(C3(O)CCC3)nc3ccc(N(C)CCO)cc23)CC1 [Example 221, 1-(6-((2-hydroxyethyl)(methyl)amino)-4-(4-(3-methoxypyrazin-2-yl)piperidin-1-yl)quinazolin-2-yl)cyclobutanol] | < 5.00
CN(CCOCCF)c1ccc2nc(C3(F)CC3)nc(N3CCC(c4ccccc4OCCF)CC3)c2c1 [Example 222, (2-(1-Fluoro-cyclopropyl)-4-{4-[2-(2-fluoro-ethoxy)-phenyl]-piperidin-1-yl}-quinazolin-6-yl)-[2-(2-fluoro-ethoxy)-ethyl]-methyl-amine] | 5.00 to 5.70
COc1ccccc1C1CCN(c2nc(C3(F)CC3)nc3ccc(N(C)CCOCCF)cc23)CC1 [Example 223, {2-(1-Fluoro-cyclopropyl)-4-[4-(2-methoxy-phenyl)-piperidin-1-yl]-quinazolin-6-yl}-[2-(2-fluoro-ethoxy)-ethyl]-methyl-amine] | 5.70 to 6.30
CN(CCO[Si](C)(C)C(C)(C)C)c1ccc2nc(C3(F)CC3)nc(N3CCC(c4ccccc4O)CC3)c2c1 [Example 224, 2-{1-[6-{[2-(tert-Butyl-dimethyl-silanyloxy)-ethyl]-methyl-amino}-2-(1-fluoro-cyclopropyl)-quinazolin-4-yl]-piperidin-4-yl}-phenol] | 5.00 to 5.70
CN(CCO)c1ccc2nc(C3(F)CC3)nc(N3CCC(c4ccccc4OCCF)CC3)c2c1 [Example 225, 2-[(2-(1-Fluoro-cyclopropyl)-4-{4-[2-(2-fluoro-ethoxy)-phenyl]-piperidin-1-yl}-quinazolin-6-yl)-methyl-amino]-ethanol] | 5.70 to 6.30
